Measurements from patent US6365414B1, “Vitro system for determining formation of Aβ amyloid” (The General Hospital Corporation, priority 1994, dated 2002).
Read-outs that look alike come from different tables or passages of the source. Each block holds one compound with its values, some of them ahead of it.

Columns and labels:
[1] = ^65Zn^2+ dot-blot binding to immobilized Aβ peptides (Scatchard / competition); details: for zinc binding (in words): dot-blot or blot of tryptic digest, ^65Zn^2+
Method: ^65Zn^2+ Binding Studies—Dissolved peptides (1.2 nMol, unless otherwise stated) were dot-blotted onto 0.2-μm polyvinylidene difluoride membrane (Pierce Chemical Co.), washed twice with chelating buffer (200 μl×100 mM NaCl, 20 mM Tris-HCl, 1 mM EDTA, pH 7.4), then five times with blocking buffer (200 μl×100 mM NaCl, 20 mM Tris-HCl, 1 mM MnCl2, pH 7.4), and then incubated (60 min, 20° C.) with ^65Zn (unless otherwise stated 130,000 cpm, […] ^65ZnCl2 in 200 μl of blocking buffer±competing metal ion chloride). The dot-blot was then washed with blocking buffer (5×200 μl), the dot excised, placed in a test tube, and assayed by γ-counting (11% efficiency). The equilibration volume for stoichiometry estimates was regarded as 6×200 μl. The 214 nm UV absorbance of the unbound flow-through was assayed to determine the total amount of peptide remaining bound onto the membrane. […] To alter the pH, the ^65Zn incubation was carried out in the presence of 100 mM buffer: MOPS (pH 6.5-7.0), MES (pH 5.0-6.0), acetate (pH 3.5-4.5). The dot-blot apparatus was washed with detergent and EDTA (50 mM) then rinsed and siliconized between use.
Aliquots of Aβ were incubated (60 min) with ^65Zn^2+ in the presence of varying concentrations of unlabeled Zn^2+ (0.01-50 μM total). Values shown are means±S.D., n≧3. […] (FIG. 1b) depicts specificity of the Zn^2+ binding site for various metals. Aβ was incubated (60 min) with ^65Zn^2+ (157 nM, 138,000 cpm) and competing unlabeled metal ions (50 μM total). […] Percent binding of total counts ^65Zn^2+/min added is corrected for the amounts (in nanomoles) of peptides adhering to the membrane. (FIG. 1d) depicts as for 1a, with Aβ1-28 peptide substituting for Aβ1-40. 157 nM ^65Zn (138,000 cpm) is used in this experiment to probe immobilized peptide (1.6 nmol). (FIG. 1e) depicts pH dependence of […] binding to Aβ1-40.

Aβ1-40 = biological target: T1, Aβ1-40 (Homo sapiens, UniProt P05067); experiment: Tryptic digestion of Aβ1-40 after incubation with Zn^2+; type: biochemical
T1 construct: Aβ1-40 (13.9 μg) was incubated with; purchased Bachem; Sigma (also synthesized by the W. M. Keck Foundation laboratory, Yale); host or cells: chemical synthesis

Aβ [2] = biological target: T2, Aβ (Homo sapiens, UniProt P05067); experiment: G50 gel filtration chromatography of Aβ with metal ions or EDTA; details: for less total peptide eluted compared with EDTA profile / effect on Aβ recoverable by chromatography (in words): metal 25 μM
T2 construct: purchased Bachem; Sigma (also synthesized by the W. M. Keck Foundation laboratory, Yale); host or cells: chemical synthesis
Method: Aβ was stored in aliquots of 0.52 mg/ml in water at −20° C., then kept at 4° C. when thawed. Reagents were mixed without vortex mixing. The incubated Aβ was directly applied to a G50 SF (Pharmacia, Uppsala, Sweden) column (Bio-Rad Econo-Column, 30×0.7 cm) pre-equilibrated with metal salt solution or EDTA (50 μM) in TBS at 20° C. and eluted at 8 ml/h (Wiz peristaltic pump, Isco, Lincoln, Nebr.). Absorbance was measured at 254 and 214 nm (Type 6 optical unit, Isco). The amount of Aβ eluting at various peaks was estimated from the area under the curve. […] Because the sample eluted in a volume of approximately 15 ml, the average concentration of the peptide on the column was 0.8 μM.
To study the effects of protein blocking upon adsorption of Aβ to the chromatography column, a Sephadex G50 SF column which had been characterized previously for Aβ behavior was eluted with 3% bovine serum albumin (BSA) in TBS (50 ml) and equilibrated with non-BSA-containing buffer, subsequent to repeating the Aβ experiments.
The elution points of molecular mass standards and relative assignments of Aβ peak elutions are indicated. Mass standards were blue dextran (2×10^6 kDa, V0=void volume), BSA (66 kDa), carbonic anhydrase (29 kDa), cytochrome c (12.4 kDa), and aprotinin (6.5 kDa). The mass of Aβ is 4.3 kDa. […] Data for experiments performed in the presence of copper were taken from 214 nm readings and corrected for comparison.

Aβ [3] = biological target: T2, Aβ; experiment: SDS Tris/Tricine gel electrophoresis of Aβ incubated with Zn^2+; details: Zn^2+ 200 μM, 1-24 h, 20° C.
trypsin = experiment: Trypsin activity, Z-Arg-amido-4-methylcoumarin cleavage; type: biochemical
[4] = human, in vivo
[5] = Aβ binding to kaolin (aluminum silicate); type: physicochemical; details: metal 25 μM
Method: Aβ Binding to Kaolin (Aluminum Silicate)—Kaolin suspension was prepared in high performance liquid chromatography water (Fisher), defined, and adjusted to 50% (v/v). Aβ (40 μg) was incubated in siliconized reaction vessels with either kaolin or Sephadex G50 SF (10 μl×50% (v/v)) in Cu^2+, Zn^2+, or EDTA (100 μl in TBS, 5 min, room temperature). The suspension was then pelleted (1500×g, 3 min) and the supernatant removed and diluted 20-fold with water to bring the UV absorbance readings into the linear range. Samples were assayed at 214 nm before and after incubation with kaolin or Sephadex.
(FIG. 3a) depicts concentration (by 214 nm absorbance) of Aβ remaining in supernatant after incubation with 10 mg of G50 Sephadex. (FIG. 3b) depicts concentration (by 214 nm absorbance) of Aβ remaining in supernatant after incubation with 10 mg of kaolin, expressed as percent of the starting absorbance.

[6] = centrifugation studies; cited from earlier work
[7] = neutral pH; cited from earlier work
[8] = Tinctorial amyloid formation (Congo Red, polarized light); type: physicochemical
Method: Zinc-induced tinctorial amyloid formation. […] Unbound dye was removed, the pellet washed with buffer 1 (100 mM NaCl, 20 mM Tris-HCl, pH 7.4) and mounted for microscopy.
Unbound dye was removed, the pellet washed with buffer 1 (100 mM NaCl, 20 mM Tris-HCl, pH 7.4) and mounted for microscopy.

[9] = Size estimation of Aβ aggregates with filters of various pore sizes, ^65Zn tracer, EDTA wash; type: physicochemical
Method: FIGS. 7a, 7b, 7c and 7d. Size estimation of zinc-induced Aβ aggregates. […] By determining the amounts of Aβ1-40 and ^65Zn in the filtrate, the quantities retarded by the filters could be determined, and the stoichiometry of the zinc: Aβ assemblies estimated. (7d) Bar graph. […] The amounts of zinc-precipitated Aβ1-40 resolubilized in the filtrate fraction were determined by OD214, and expressed as a percentage of the amount originally retained by the respective filters. ^65Zn released into the filtrate was measured by γ-counting.
By determining the amounts of Aβ1-40 and ^65Zn in the filtrate, the quantities retarded by the filters could be determined, and the stoichiometry of the zinc: Aβ assemblies estimated. […] The amounts of zinc-precipitated Aβ1-40 resolubilized in the filtrate fraction were determined by OD214, and expressed as a percentage of the amount originally retained by the respective filters. ^65Zn released into the filtrate was measured by γ-counting.

T2 sequence (P05067 672-711 limits assumed): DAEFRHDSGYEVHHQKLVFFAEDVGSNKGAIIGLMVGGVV
T1 sequence (P05067 672-711 limits assumed): as above

zinc binding (in words) [1]: binds zinc
Compound: 6-40: 3.6 kDa tryptic digestion product of Aβ1-40

zinc binding (in words) [1]: does not bind zinc
Compound: 17-40: 2.1 kDa tryptic digestion product of Aβ1-40, post-secretase carboxyl-terminal product (LVFFAEDVGSNKGAIIGLMVGGVV; Amyloid-beta protein 40; UniProt P05067 688-711, looked up, fragment) [reference compound]
effect of zinc on the rate of tryptic digestion of the peptide (Aβ1-40; increasing zinc concentrations): not inhibited by increasing zinc concentrations

zinc binding (in words) [1]: unable to bind zinc
Compound: 25-35: Aβ fragment covering a region of the carboxyl terminus, residues 25-35 (GSNKGAIIGLM; Amyloid-beta protein 40; UniProt P05067 696-706, looked up, fragment)

Compound: [Ag+2] [Ag^2+]
less total peptide eluted compared with EDTA profile (Aβ [2]): 40%

Compound: [Al+3] [Al^3+]
effect on Aβ recoverable by chromatography (in words) (Aβ [2]): partial effects on Aβ solubility comparable with 3 μM total Zn^2+

Compound: [Ba+2] [Ba^2+]
less total peptide eluted compared with EDTA profile (Aβ [2]): 40%

Compound: [Ca+2] [Ca^2+]
less total peptide eluted compared with EDTA profile (Aβ [2]): 40%

Aβ dimerization (Aβ [2]; 25 μM total): dramatic increase in Aβ dimerization
Compound: [Cu+2] [Cu^2+]

Compound: [Mg+2] [Mg^2+]
less total peptide eluted compared with EDTA profile (Aβ [2]): 40%

Compound: [Pb+2] [Pb^2+]
effect on Aβ recoverable by chromatography (in words) (Aβ [2]): most strongly promotes the elution of the monomeric peptide, abolishing high order polymers

abolition of ^65Zn^2+ binding to Aβ ([1]; 150 mM Tris): ≈ 50% | abolition of ^65Zn^2+ binding to Aβ ([1]; 500 mM Tris): ≈ 95%
Compound: NC(CO)(CO)CO [Tris]

Compound: [Zn+2] [Zn^2+]
competition of unlabeled metal ions for ^65Zn^2+ label on Aβ ([1]; competing metal 50 μM total, ^65Zn^2+ 157 nM): the only unlabeled metal ion tested that is capable of competing off the label | Aβ eluting from the column (Aβ [2]; 25 μM total Zn^2+): < 20% | lowest total concentration that decreases recoverable Aβ (Aβ [2]; compared with EDTA profile): 0.4 µM | covalent or SDS-resistant polymerization of Aβ (Aβ [3]): does not induce covalent or SDS-resistant polymerization of Aβ | inhibition of tryptic Aβ hydrolysis (Aβ1-40; 200 μM Zn^2+): complete inhibition of Aβ hydrolysis | inhibition of tryptic activity (trypsin; 200 μM): 12% | effect on the activity of trypsin (trypsin; up to 100 μM in TBS): negligible | effect on cognition of age-matched control subjects [4]: remained unaffected by the dose | reversibility of changes [4]: rapidly reversible following cessation of the four day supplementation | time to acute decline in cognition [4]: forty-eight | drop in Mini-Mental State Examination scores ([4]; po): 31% | effect on kaolin-induced Aβ precipitation relative to EDTA [5]: nearly half of the amount recovered from the EDTA incubation supernatant | induction of aggregation of human Aβ1-40 by metal ions (metal ions 3 μM, Aβ1-40 […]): the only one of several metal ions tested on an equimolar basis, including Al^3+, to induce significant aggregation of human Aβ1-40

^65Zn^2+ binding compared with Aβ1-40 ([1]; ^65Zn^2+ 74 nM, FIG. 1c): 30 % of Bmax
Compound: Aβ1-28: Aβ fragment, residues 1-28

Compound: ^125I-Aβ1-40: human Aβ1-40 tracer iodinated on the tyrosine residue at position 10
Zn^2+ concentration required to precipitate the peptide [6]: 1 mM

zinc binding (in words) [1]: does not interfere with ^65Zn^2+ binding
Compound: gln11: Aβ1-28 where residue 11 is glutamine (DAEFRHDSGYQVHHQKLVFFAEDVGSNK; Amyloid-beta protein 40; UniProt P05067 672-699, looked up, variant E11Q)

Compound: insulin: peptide whose zinc binding properties are well characterized
stoichiometric ratio Zn^2+:insulin at which the peptide precipitates [7]: > 0.33

Compound: rat Aβ1-40: rat/mouse species of Aβ1-40; Arg→Gly, Tyr→Phe and His→Arg at positions 5, 10 and 13 (DAEFGHDSGFEVRHQKLVFFAEDVGSNKGAIIGLMVGGVV; Amyloid-beta protein 40; UniProt P08592 672-711, looked up)
Zn^2+ concentration that induces amyloid by tinctorial criteria [8]: ≥ 10 µM | Congo Red-stained material after incubation with EDTA ([8]; EDTA 50 μM instead of Zn^2+): In neither case was Congo Red-stained material detected | tinctorial amyloid formation (in words) ([8]; Zn^2+ 25 μM, 30 min, 37° C.): significantly fewer and smaller particles, with minimal birefringence | peptide aggregated into >0.2μ particles (EDTA, higher peptide concentrations): ≈ 15% | peptide aggregated into >0.2μ particles (EDTA, peptide 0.8 μM): no detectable aggregation | peptide aggregated into >0.2μ particles (Zn^2+ 25 μM, peptide 0.8 μM): no aggregation | peptide aggregated into >0.2μ particles (Zn^2+ 25 μM, peptide 4 μM): 25% | increase of >0.1μ particles following incubation with Zn^2+ ([9]; Zn^2+ 25 μM versus EDTA): 20% | increase of >0.22μ particles following incubation with Zn^2+ ([9]; Zn^2+ 25 μM versus EDTA): 30% | proportion as >0.65μ particles ([9]; Zn^2+ 25 μM, peptide […]): increased only slightly
